Measurements reported in patent US20070199084A1, “Ubiquitination of Membrane Transporters” (VANDERBILT UNIVERSITY, priority 2005, published 2007).
Residues, ends and D or L forms follow the SMILES beside them. *: point of attachment. Cbz = O=C(OCc1ccccc1)*

Assays:
dopamine transporter = target: T1, dopamine transporter (Canis lupus familiaris, UniProt A0A8I3S5A0); conditions: cited from earlier work
T1 construct: digitonin-solubilized dopamine transporters from dog caudate nucleus; from tissue; host or cells: dog caudate nucleus, digitonin-solubilized extract
T1 sequence (A0A8I3S5A0 1-617): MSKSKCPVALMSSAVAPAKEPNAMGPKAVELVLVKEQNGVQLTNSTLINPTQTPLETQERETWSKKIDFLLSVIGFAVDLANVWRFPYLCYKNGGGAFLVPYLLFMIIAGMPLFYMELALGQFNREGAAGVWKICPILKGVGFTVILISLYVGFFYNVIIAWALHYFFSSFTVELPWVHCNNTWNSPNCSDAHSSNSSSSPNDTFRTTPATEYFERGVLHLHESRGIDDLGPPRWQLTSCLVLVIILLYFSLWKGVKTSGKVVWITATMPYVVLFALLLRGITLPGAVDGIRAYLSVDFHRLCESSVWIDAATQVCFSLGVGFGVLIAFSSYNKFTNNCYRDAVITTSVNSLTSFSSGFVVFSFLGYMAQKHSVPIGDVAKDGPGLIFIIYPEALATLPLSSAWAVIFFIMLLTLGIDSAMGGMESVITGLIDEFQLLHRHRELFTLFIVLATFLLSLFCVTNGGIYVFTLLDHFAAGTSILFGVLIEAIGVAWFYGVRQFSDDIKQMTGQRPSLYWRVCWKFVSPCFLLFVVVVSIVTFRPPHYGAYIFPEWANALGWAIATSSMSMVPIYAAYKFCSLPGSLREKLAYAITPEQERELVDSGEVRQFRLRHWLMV

CAD cells = assay: Ponceau-S staining of the total membrane (other cellular proteins); conditions: desipramine treatment for 3 days
NET [1] = target: T2, NET (Homo sapiens, UniProt P23975); assay: NET proteins (total) by immunoblot with anti-NET in transfected CAD cells; format: cell-based; parameters: dose or concentration left out as unconfirmed; conditions: CAD cells transfected with NET and Ub; preincubated 4 hrs prior to lysis
T2 construct: expressed in transfected cells; host or cells: CAD cells (transient, co-transfected with HA-Ub)
T2 sequence (P23975 whole entry): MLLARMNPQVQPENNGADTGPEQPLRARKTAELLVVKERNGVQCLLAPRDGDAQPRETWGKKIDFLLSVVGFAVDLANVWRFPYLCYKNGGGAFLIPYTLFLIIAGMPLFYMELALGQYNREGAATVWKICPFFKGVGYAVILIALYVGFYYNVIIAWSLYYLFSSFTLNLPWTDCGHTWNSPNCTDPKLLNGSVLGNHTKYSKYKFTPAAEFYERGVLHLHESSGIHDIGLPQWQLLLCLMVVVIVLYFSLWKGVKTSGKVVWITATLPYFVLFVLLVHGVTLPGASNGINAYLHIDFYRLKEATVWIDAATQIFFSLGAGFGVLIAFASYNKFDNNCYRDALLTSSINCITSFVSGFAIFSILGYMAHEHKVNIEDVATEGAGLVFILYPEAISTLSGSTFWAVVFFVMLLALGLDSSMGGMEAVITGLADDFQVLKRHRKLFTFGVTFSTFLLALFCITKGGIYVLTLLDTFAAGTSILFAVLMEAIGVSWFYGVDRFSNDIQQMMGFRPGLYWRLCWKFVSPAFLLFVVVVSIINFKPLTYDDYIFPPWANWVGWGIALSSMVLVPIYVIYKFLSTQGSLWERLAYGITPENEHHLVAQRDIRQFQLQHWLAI
Experimental: (§1) Acute regulation of NET ubiquitination by PMA and methacholine (meth) was assessed. […] One mM PMA and 1 mM meth both increased ubiquitination of NET (FIG. 3). Chronic regulation of ubiquitination of NET was assessed in CAD cells transfected with NET and HA-Ub. […] FIGS. 5A-5B.

hNET = assay: NE transport assay in CAD-his-hNET cells; format: cell-based, human; parameters: dose or concentration left out as unconfirmed; conditions: incubated 0, 1, 4 and 24 hrs prior to NE transport assay; triplicates
Experimental: FIG. 5A—Inhibition of proteasomes influence NET transport in cells. CAD-his-hNET cells in 24 well plates were incubated in MG132 ([…]) for 0, 1, 4 and 24 hrs prior to NE transport assay in triplicates.
Transport Assay. CAD-his-hNET cells in 24 well plates were incubated in MG132 ([…]) for 0, 1, 4 and 24 hrs prior to NE transport assay in triplicates. Protein Assay. CAD cells transfected with NET and Ub were preincubated with MG132 for 4 hrs prior to cell lysis and immunoblot with anti-NET for protein analysis.

NET [2] = target: T2, NET; assay: Ubiquitination of NET: IP with anti-HA (Ub), immunoblot with anti-NET, in transfected CAD cells; format: cell-based; conditions: CAD cells transfected with NET and HA-Ub; 1 mM, pre-incubated 30 min at 37° C. before IP; vs vehicle
Experimental: Prior to IP, cells were pre-incubated in media containing either vehicle (control), 1 mM PMA, or 1 mM methacholine (meth) for 30 min. PMA and methacholine increased ubiquitination of NET.
as §1

[3] = digitonin-solubilized extract of dog caudate

COC(=O)C1C(OC(=O)c2ccccc2)CC2CCC1N2C (single isomer, unassigned; (+)) [(+)-cocaine]
inhibition of soluble [3H]WIN 35,428 binding (competition studies) (dopamine transporter; [3]): weakly

CNCCCN1c2ccccc2CCc2ccccc21 [Desipramine, desipramine]
inhibition of soluble [3H]WIN 35,428 binding (competition studies) (dopamine transporter; [3]): weakly
amounts of other cellular proteins (Ponceau-S stain of total membrane) (CAD cells): no change

CC(C)C[C@@H](C=O)NC(=O)[C@H](CC(C)C)NC(=O)[C@H](CC(C)C)NC(=O)OCc1ccccc1 [MG132] (Cbz-Leu-Leu-Leu-aldehyde)
NET protein concentration (NET [1]): increase
NET transport (hNET): increase

CCCCCCCCCCCCCC(=O)O[C@@H]1[C@@H](C)[C@@]2(O)[C@@H](C=C(CO)C[C@]3(O)C(=O)C(C)=C[C@@H]23)[C@@H]2C(C)(C)[C@]12OC(C)=O [PMA]
ubiquitination of NET (acute regulation) (NET [2]): increased

COC(=O)[C@H]1[C@@H](c2ccc(F)cc2)C[C@@H]2CC[C@H]1N2C [[^3H]WIN 35,428]
Kd (dopamine transporter; digitonin-solubilized extract of dog caudate, read-out: Kd of binding): 16 nM

OC1(c2ccc(Cl)cc2)c2ccccc2C2=NCCN21 (stereo not shown) [mazindol]
inhibition of soluble [3H]WIN 35,428 binding (competition studies) (dopamine transporter; [3]): strongly

CC(=O)OC(C)C[N+](C)(C)C (stereo not shown) [meth, methacholine]
ubiquitination of NET (acute regulation) (NET [2]): increased

(−)-cocaine
potency compared to assays using [3H]GBR 12935 (dopamine transporter; competition against [3H]WIN 35,428): relatively more potent
